The subject of this experiment is HUVECs. It is filed as cell-based. The following applies: HUVEC proliferation, bFGF at 10 ng/ml or VEGF at 5 ng/ml, 48 hours, BrdU incorporation; read-out: IC50 on HUVECs. In short, it runs like this:
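Proliferation read-out: BrdU incorporation after 48-hour culture (37 ° C, 5% CO2) with graded peptide doses. Cells were in EBM with 2% FCS at 5,000 per well, driven by VEGF (5 ng/ml) or bFGF (10 ng/ml), added after ≥12-hour attachment.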
(Incorporation of labelled thymidine or its analogues reports DNA synthesis.)

We go through 45 substances from US20070203066A1, “Compositions and methods for inhibiting cellular proliferation” (priority 2005, published 2007).

Primed or numbered codes have the meaning given here. No end group written: not given here. Ida(3) = iminodiacetic acid linker, Lys side-chain amines bound to its two carboxyl groups; Ida(4) = iminodiacetic acid linker (dimerization linker bound to lysine side chain); ATA = not defined here; GP3 = not defined here

A word on the IC50: it is the midpoint of a concentration-inhibition curve.

“426 (Ac-ARRRRQYVAIYFK; not fully specified (residue 13, C-terminus); also: homodimer of residues 1-13 via Ida linker on Lys13 side chain) [compound 426]”: the IC50 is below 10 µM. In the case of “427 (Ac-ARRRRQAVAIK(Ida(4))F; also: homodimer of residues 1-12 via Ida linker on Lys11 side chain) [compound 427]” it was below 10 µM; in that of “428 (Ac-ARRRRQAVAIK(GP3)F; reading uncertain; also: homodimer via GP3 linker at K11) [compound 428]”, below 10 µM. Regarding “429 (Ac-ARRRRQAVAIK(Ida(4))FI; also: homodimer via Ida linker at K11) [compound 429]”, the IC50 was below 10 µM. To “430 (Ac-ARRRRQAVAIK(Ida(4))YF; also: homodimer via Ida linker at K11) [compound 430]” belongs below 10 µM; to “431 (Ac-ARRRRQAVAIYK(Ida(4))F; also: homodimer via Ida linker at K12) [compound 431]”, below 10 µM.

As to “433 (Ac-RRRREQAVAIYFK(Ida(4)); not fully specified (C-terminus); also: homodimer via Ida linker at K13) [compound 433]”, the IC50 was 10 to 30 µM.

Take “434 (Ac-RRRRFQAVAIYFK(Ida(4)); not fully specified (C-terminus); also: homodimer via Ida linker at K13) [compound 434]”: the IC50 is below 10 µM. Turning to “435 (Ac-RRRRGQAVAIYFK(Ida(4)); not fully specified (C-terminus); also: homodimer via Ida linker at K13) [compound 435]”, the 50% inhibitory concentration (IC50) was below 10 µM. In the case of “436 (Ac-RRRRLQAVAIYFK(Ida(4)); not fully specified (C-terminus); also: homodimer via Ida linker at K13) [compound 436]” it was below 10 µM; in that of “437 (Ac-RRRRMQAVAIYFK(Ida(4)); not fully specified (C-terminus); also: homodimer via Ida linker at K13) [compound 437]”, below 10 µM. In the case of “438 (Ac-RRRRNQAVAIYFK(Ida(4)); not fully specified (C-terminus); also: homodimer via Ida linker at K13) [compound 438]” it was below 10 µM. In the case of “439 (Ac-RRRRPQAVAIYFK(Ida(4)); not fully specified (C-terminus); also: homodimer via Ida linker at K13) [compound 439]”, the IC50 is below 10 µM. For the substance “440 (Ac-RRRRSQAVAIYFK(Ida(4)); not fully specified (C-terminus); also: homodimer via Ida linker at K13) [compound 440]”, the IC50 is below 10 µM. In the case of “441 (Ac-RRRRTQAVAIYFK(Ida(4)); not fully specified (C-terminus); also: homodimer via Ida linker at K13) [compound 441]” it was below 10 µM; in that of “442 (Ac-RRRRVQAVAIYFK(Ida(4)); not fully specified (C-terminus); also: homodimer via Ida linker at K13) [compound 442]”, below 10 µM. To “443 (Ac-RRRRWQAVAIYFK(Ida(4)); not fully specified (C-terminus); also: homodimer via Ida linker at K13) [compound 443]” belongs below 10 µM. To “444 (Ac-RRRRYQAVAIYFK(Ida(4)); not fully specified (C-terminus); also: homodimer via Ida linker at K13) [compound 444]” belongs below 10 µM; to “446 (Ac-RRRRRQAVAIYFK(ATA); reading uncertain; also: homotrimer via Ata linker at K13) [compound 446]”, below 10 µM. Take “448 (Ac-RRRRRQAAAAAAK(Ida(4)); not fully specified (C-terminus); also: homodimer via Ida linker at K13) [compound 448]”: the IC50 is above 30 µM.

Take “449 (Ac-RRRRRAAAAAAAK(Ida(4)); not fully specified (C-terminus); also: homodimer via Ida linker at K13) [compound 449]”: the IC50 was above 30 µM.

Consider “450 (Ac-ARRRRQAVAILFK-NH2; not fully specified (residue 13); also: homodimer via Ida linker at K13) [compound 450]”, for which the IC50 is below 10 µM. In the case of “451 (Ac-NRRRRQAVAIVFK-NH2; also: homodimer via Ida linker at K13) [compound 451]”, the IC50 was above 30 µM. On to “452 (Ac-PRRRRQAVAIVFK-NH2; not fully specified (residue 13); also: homodimer via Ida linker at K13) [compound 452]”, for which the IC50 was below 10 µM.

“453 (Ac-QRRRRQAVAIVFK-NH2; not fully specified (residue 13); also: homodimer via Ida linker at K13) [compound 453]”: the IC50 was below 10 µM.

Consider “454 (Ac-SRRRRQAVAIVFK-NH2; not fully specified (residue 13); also: homodimer via Ida linker at K13) [compound 454]”, for which the IC50 was below 10 µM. As to “455 (Ac-TRRRRQAVAIVFK-NH2; not fully specified (residue 13); also: homodimer via Ida linker at K13) [compound 455]”, the IC50 was below 10 µM. For “456 (Ac-KRRRRQAVAIVF; not fully specified (residue 1); also: homodimer via Ida linker on K1 side chain) [compound 456]”, the IC50 was above 30 µM.

For the substance “457 (Ac-PRRRRQAVAIYFK(ATA); reading uncertain; also: homotrimer via Ata linker on Lys13 side chain) [compound 457]”, the IC50 is above 30 µM.

On to “458 (Ac-KARRRRQAVAIYF; not fully specified (residue 1); also: homodimer via Ida linker on Lys side chains, linker at 1 via Ida, other end not in the chain) [compound 458]”, for which the IC50 is above 30 µM. In the case of “459 (Ac-KRRRRQAVAIYF; not fully specified (residue 1); also: homodimer via Ida linker on Lys side chains, linker at 1 via Ida, other end not in the chain) [compound 459]” it was above 30 µM; in that of “460 (Ac-ARRK(Ida(3))RQAVAIYF; also: homodimer via Ida linker on Lys side chains, linker at 4 via Ida, other end not in the chain) [compound 460]”, 10 to 30 µM.

Consider “461 (Ac-ARRRK(Ida(3))QAVAIYF; also: homodimer via Ida linker on Lys side chains, linker at 5 via Ida, other end not in the chain) [compound 461]”, for which the concentration for half-maximal inhibition (IC50) was 10 to 30 µM. In the case of “462 (Ac-ARRRRK(Ida(3))AVAIYF; also: homodimer via Ida linker on Lys side chains, linker at 6 via Ida, other end not in the chain) [compound 462]” it was 10 to 30 µM; in that of “463 (Ac-ARRARQAVAIYFK(Ida(3)); not fully specified (C-terminus); also: homodimer via Ida linker on Lys side chains, linker at 13 via Ida, other end not in the chain) [compound 463]”, below 10 µM. In the case of “464 (Ac-ARRERQAVAIYFK(Ida(3)); not fully specified (C-terminus); also: homodimer via Ida linker on Lys side chains, linker at 13 via Ida, other end not in the chain) [compound 464]” it was below 10 µM; in that of “465 (Ac-ARRQRQAVAIYFK(Ida(3)); not fully specified (C-terminus); also: homodimer via Ida linker on Lys13 side chain) [compound 465]”, below 10 µM; in that of “466 (Ac-AK(Ida(3))RRRQAVAIYF; also: homodimer via Ida linker on Lys2 side chain) [compound 466]”, above 30 µM. In the case of “467 (Ac-ARK(Ida(3))RRQAVAIYF; also: homodimer via Ida linker on Lys3 side chain) [compound 467]” it was above 30 µM. “468 (Ac-ARRIRQAVAIYFK(Ida(3)); not fully specified (C-terminus); also: homodimer via Ida linker on Lys13 side chain) [compound 468]”: the IC50 was above 30 µM. Turning to “469 (Ac-ARRRRQRVAIYFKARRRRQRVAIYFK; not fully specified) [compound 469]”, the IC50 was below 10 µM. As to “470 (Ac-PRRRDQAVAIYFK(Ida(3)); not fully specified (C-terminus); also: homodimer via Ida linker on Lys13 side chain) [compound 470]”, the IC50 is above 30 µM.

In the case of “471 (Ac-PRRRFQAVAIYFK(Ida(3)); not fully specified (C-terminus); also: homodimer via Ida linker on Lys13 side chain) [compound 471]”, the IC50 was above 30 µM.

As for “472 (Ac-PRRRGQAVAIYFK(Ida(3)); not fully specified (C-terminus); also: homodimer via Ida linker on Lys13 side chain) [compound 472]”, the IC50 was above 30 µM. For “473 (Ac-PRRRLQAVAIYFK(Ida(3)); not fully specified (C-terminus); also: homodimer via Ida linker on Lys13 side chain) [compound 473]”, the half-inhibitory concentration (IC50) is above 30 µM.
